Reference: ChEMBL document CHEMBL5715952 (Oncotarget, 2015)
Active and inactive are the calls of the source. The calls are words filed in the database; no cut-off is given here.

How the values were obtained:
RPMI-8226 [1] = assay: Synergistic antiproliferative activity against wild-type human RPMI-8226 cells assessed as reduction in cell viability at ED90 incubated for 72 hrs in presence of bortezomib by MTS assay; assay type: functional
[2] = biological target: T1, Bromodomain and extra-terminal motif (BET) (Homo sapiens) (UniProt P25440+O60885+Q58F21+Q15059); settings: ANBL-6, dose lower 40.0 nM, dose upper […]
ANBL-6 [3] = assay: Induction of apoptosis in wild-type human ANBL-6 cells assessed as late apoptosis at 1600 nM incubated for 72 hrs by annexin V and 7-AAD staining by flow cytometry analysis (Rvb=26 %); assay type: functional
[4] = biological target: T1, Bromodomain and extra-terminal motif (BET) (Homo sapiens); settings: ANBL-6, dose lower 40.0 nM, dose upper […]; remark: listed apart in the source
ANBL-6 [5] = assay: Synergistic apoptosis activity in wild-type human ANBL-6 cells assessed as viable at 1600 nM incubated for 72 hrs in the presence of BTZ by annexin V and 7-AAD staining by flow cytometry analysis (Rvb=59 %); assay type: functional
[6] = biological target: T1, Bromodomain and extra-terminal motif (BET) (Homo sapiens); settings: ANBL-6, dose lower 40.0 nM, dose upper […]; remark: listed apart in the source
ANBL-6 [7] = assay: Synergistic apoptosis activity in wild-type human ANBL-6 cells assessed as late apoptosis at 1600 nM incubated for 72 hrs in the presence of BTZ by annexin V and 7-AAD staining by flow cytometry analysis (Rvb=26 %); assay type: functional
ANBL-6 [8] = assay: Synergistic apoptosis activity in wild-type human ANBL-6 cells assessed as early apoptosis at 1600 nM incubated for 72 hrs in the presence of BTZ by annexin V and 7-AAD staining by flow cytometry analysis (Rvb=14 %); assay type: functional
[9] = biological target: T1, Bromodomain and extra-terminal motif (BET) (Homo sapiens); settings: Bortezomib-resistant ANBL6 cell, dose lower 40.0 nM, dose upper […]
[10] = Synergistic antiproliferative activity against human ANBL-6 BR resistant cells assessed as reduction in cell viability at ED50 incubated for 72 hrs in presence of bortezomib by MTS assay; assay type: functional
[11] = tested on: Bortezomib-resistant ANBL6; assay: Synergistic apoptosis activity in human bortezomib-resistant ANBL6 cells assessed as late apoptosis at 1600 nM incubated for 72 hrs in the presence of BTZ by annexin V and 7-AAD staining by flow cytometry analysis (Rvb=5 %); assay type: functional
[12] = biological target: T1, Bromodomain and extra-terminal motif (BET) (Homo sapiens); settings: Bortezomib-resistant ANBL6 cell, dose lower 40.0 nM, dose upper […]; remark: listed apart in the source
[13] = tested on: Bortezomib-resistant ANBL6; assay: Induction of apoptosis in human bortezomib-resistant ANBL6 cells assessed as viable at 1600 nM incubated for 72 hrs by annexin V and 7-AAD staining by flow cytometry analysis (Rvb=80 %); assay type: functional
[14] = Synergistic antiproliferative activity against human melphalan-resistant RPMI-8226 cells assessed as reduction in cell viability at ED50 incubated for 72 hrs in presence of bortezomib by MTS assay; assay type: functional, Melphalan-resistant RPMI-8226 cell
[15] = tested on: Bortezomib-resistant ANBL6; assay: Induction of apoptosis in human bortezomib-resistant ANBL6 cells assessed as early apoptosis at 1600 nM incubated for 72 hrs by annexin V and 7-AAD staining by flow cytometry analysis (Rvb=15 %); assay type: functional
[16] = tested on: Bortezomib-resistant ANBL6; assay: Induction of apoptosis in human bortezomib-resistant ANBL6 cells assessed as early apoptosis at 160 nM incubated for 72 hrs by annexin V and 7-AAD staining by flow cytometry analysis (Rvb=15 %); assay type: functional
[17] = biological target: T1, Bromodomain and extra-terminal motif (BET) (Homo sapiens); settings: ANBL-6, dose lower 40.0 nM, dose upper […]; remark: listed apart in the source
[18] = tested on: Bortezomib-resistant ANBL6; assay: Synergistic apoptosis activity in human bortezomib-resistant ANBL6 cells assessed as early apoptosis at 1600 nM incubated for 24 hrs in the presence of BTZ by annexin V and 7-AAD staining by flow cytometry analysis; assay type: functional
[19] = tested on: Bortezomib-resistant ANBL6; assay: Synergistic antiproliferative activity against human bortezomib-resistant ANBL6 cells assessed as reduction in cell viability at ED90 incubated for 72 hrs in presence of bortezomib by MTS assay; assay type: functional
[20] = Synergistic antiproliferative activity against human melphalan-resistant RPMI-8226 cells assessed as reduction in cell viability at ED90 incubated for 72 hrs in presence of bortezomib by MTS assay; assay type: functional, Melphalan-resistant RPMI-8226 cell
ANBL-6 [21] = assay: Induction of apoptosis in wild-type human ANBL-6 cells assessed as viable at 40 nM incubated for 72 hrs by annexin V and 7-AAD staining by flow cytometry analysis (Rvb=59 %); assay type: functional
ANBL-6 [22] = assay: Synergistic antiproliferative activity against wild-type human ANBL-6 cells assessed as reduction in cell viability at ED75 incubated for 72 hrs in presence of bortezomib by MTS assay; assay type: functional
ANBL-6 [23] = assay: Synergistic antiproliferative activity against wild-type human ANBL-6 cells assessed as reduction in cell viability at ED90 incubated for 72 hrs in presence of bortezomib by MTS assay; assay type: functional
[24] = tested on: Bortezomib-resistant ANBL6; assay: Synergistic apoptosis activity in human bortezomib-resistant ANBL6 cells assessed as early apoptosis at 1600 nM incubated for 48 hrs in the presence of BTZ by annexin V and 7-AAD staining by flow cytometry analysis; assay type: functional
ANBL-6 [25] = assay: Induction of apoptosis in wild-type human ANBL-6 cells assessed as viable at 1600 nM incubated for 72 hrs by annexin V and 7-AAD staining by flow cytometry analysis (Rvb=59 %); assay type: functional
[26] = tested on: Bortezomib-resistant ANBL6; assay: Synergistic apoptosis activity in human bortezomib-resistant ANBL6 cells assessed as early apoptosis at 1600 nM incubated for 72 hrs in the presence of BTZ by annexin V and 7-AAD staining by flow cytometry analysis (Rvb=15 %); assay type: functional
[27] = tested on: Bortezomib-resistant ANBL6; assay: Synergistic antiproliferative activity against human bortezomib-resistant ANBL6 cells assessed as reduction in cell viability at ED75 incubated for 72 hrs in presence of bortezomib by MTS assay; assay type: functional
[28] = biological target: T1, Bromodomain and extra-terminal motif (BET) (Homo sapiens); settings: Bortezomib-resistant ANBL6 cell, dose lower 40.0 nM, dose upper […]; remark: listed apart in the source
RPMI-8226 [29] = assay: Synergistic antiproliferative activity against wild-type human RPMI-8226 cells assessed as reduction in cell viability at ED75 incubated for 72 hrs in presence of bortezomib by MTS assay; assay type: functional
[30] = tested on: Bortezomib-resistant ANBL6; assay: Synergistic apoptosis activity in human bortezomib-resistant ANBL6 cells assessed as early apoptosis at 1600 nM incubated for 72 hrs in the presence of BTZ by annexin V and 7-AAD staining by flow cytometry analysis; assay type: functional
ANBL-6 [31] = assay: Synergistic apoptosis activity in wild-type human ANBL-6 cells assessed as early apoptosis at 1600 nM incubated for 24 hrs in the presence of BTZ by annexin V and 7-AAD staining by flow cytometry analysis; assay type: functional
[32] = Synergistic antiproliferative activity against human melphalan-resistant RPMI-8226 cells assessed as reduction in cell viability at ED75 incubated for 72 hrs in presence of bortezomib by MTS assay; assay type: functional, Melphalan-resistant RPMI-8226 cell

Cc1sc2c(c1C)C(c1ccc(Cl)cc1)=N[C@@H](CC(N)=O)c1nnc(C)n1-2
CI (RPMI-8226 [1]): 1.041 | inhibition [2]: Active | Activity (ANBL-6 [3]): 31% | inhibition [4]: inactive | Activity (ANBL-6 [5]): 6% | inhibition [6]: Dose-Dependent Effect | Activity (ANBL-6 [7]): 10% | Activity (ANBL-6 [8]): 84% | inhibition [9]: Active | CI [10]: 0.718 | Activity [11]: 10% | inhibition [12]: Dose-Dependent Effect | Activity [13]: 54% | CI [14]: 0.925 | Activity [15]: 30% | Activity [16]: 18% | inhibition [17]: Active | CI [18]: 0.99 | CI [19]: 0.355 | CI [20]: 0.569 | Activity (ANBL-6 [21]): 59% | CI (ANBL-6 [22]): 0.692 | CI (ANBL-6 [23]): 0.614 | CI [24]: 0.77 | Activity (ANBL-6 [25]): 31% | Activity [26]: 67% | CI [27]: 0.494 | inhibition [28]: inactive | CI (RPMI-8226 [29]): 1.15 | CI [30]: 0.87 | CI (ANBL-6 [31]): 0.85 | CI [32]: 0.693
